Legend:
5/6 Nx rats [1] = assay: Vascular calcification regression in 5/6 Nx rats on high phosphorus diet with calcitriol; type: in vivo, rat
Method: Animals were 5/6 Nx as previously described and placed on a high phosphorus diet (0.6% Ca; 1.2% P) for 14 days. Animals were divided into four groups (A,B,C and D n=4-5 animals per group), one group (A) received vehicle (saline 0.2 ml i.p.) while the remaining three groups (B,C and D) received calcitriol (80 ng/kg every other day i.p.) for the course of the study (28 days). On day 14 two groups (C and D) were converted to normal diet (Ca 0.9%; P 0.6%) and group C was administered Compound A at 3 mg/kg daily p.o.), while group D received vehicle (0.5 ml of 10% captisol in water p.o.) daily. The remaining groups (A and B) were kept on the high phosphorus diet and administered either calcitriol or vehicle for the course of the study (28 days). On day 28 all animals were sacrificed (CO2) and the aortas removed for determining aortic P and Ca content (mg/g of tissue) as previously described

5/6 Nx rats [2] = assay: Blood chemistries in 5/6 nephrectomy rat model of CKD (Example 1); type: in vivo; details: 14 days
Source text: Male Wistar rats weighing 250 g were purchased from the Animal Breeding Facility of the University of Cordoba (Spain). Rats were housed with a 12 hr/12 hr light/dark cycle and given ad libitum access to normal diet (calcium=0.9%, phosphorus=0.6%). The experimental protocols were reviewed and approved by the Ethics Committee for Animal Research of the Universidad de Cordoba (Spain), and all animals received humane care in compliance with the Principles of Laboratory Animal Care, formulated by the National Society for Medical Research and the Guide for the Care and Use of Laboratory Animals prepared by the National Academy of Science.
(§1) The rodent model of CKD used in these studies was induced by 5/6 nephrectomy (5/6 Nx), a two-step procedure that reduces the original functional renal mass by five-sixths (5/6). In the first step, animals were anesthetized using xylazine (5 mg/kg, ip) and ketamine (80 mg/kg, ip), a 5-8 mm incision was made on the left medio-lateral surface of the abdomen, and the left kidney was exposed. The left renal artery was visualized and 2 of the 3 branches tightly ligated, after which the kidney was inspected for infarct and returned to an anatomically neutral position within the peritoneal cavity. The abdominal wall and skin incisions were closed with suture, and the rat placed back into its home cage. After 1 week of recovery, the animal was reanesthetised and a 5-8 mm incision was made on the right medio-lateral surface of the abdomen. The right kidney was exposed and unencapsulated, the renal pedicle clamped and ligated, and the kidney was removed. The ligated pedicle was returned to a neutral anatomical position and the abdomen and skin incisions closed with suture materials. The animal was allowed to recover in its home cage. Sham-operated animals underwent the same procedures without renal manipulation.
(§2) After the second surgery, the diet was changed to one with decreased calcium (0.6%) and increased phosphorus (0.9%) content. The rats were randomized (based on the normal distribution of baseline body weights) into 6 experimental groups: sham-operated (n=13) (used as a control), 5/6 Nx+vehicle (saline) (n=10), 5/6 Nx+calcitriol 80 ng/kg (Calcijex, Abbot) ip every other day (n=10), 5/6 Nx+Compound A 1.5 mg/kg per day sc (n=10) (Amgen, Thousand Oaks, Calif. USA), 5/6 Nx+Compound A 3 mg/kg per day sc (n=10), or 5/6 Nx+combination calcitriol 80 ng/kg and Compound A 1.5 mg/kg (n=10) dosed as above. Treatments were maintained for 14 days. The rats were sacrificed by aortic puncture and exsanguination under general anesthesia (ip sodium thiopenthal) 24 hours after the last dose of drug.
Blood for chemistry analyses was collected from the abdominal aorta at the end of the treatment period. Blood for measurements of ionized calcium levels was collected in heparinized syringes and immediately analyzed using a Ciba-Corning 634 ISE Ca++/pH Analyzer (Ciba-Corning Essex, England). Afterwards, plasma was separated by centrifugation and stored at −70° C. until assayed. PTH levels were quantified according to the vendor's instructions using a rat PTH(1-34) immunoradiometric assay kit (Immunotopics, San Clemente, CA). Serum creatinine, phosphorous, and total calcium were measured by spectrophotometry (Sigma Diagnostics, St. Louis, Mo., USA).
Values were expressed as the mean±standard error (SE). The difference between means for two different groups was determined by t test; the difference between means for three or more groups was assessed by ANOVA. P<0.05 was considered significant.

5/6 Nx rats [3] = assay: Ex vivo assessment of vascular calcification: aortic calcium and phosphorus content, von Kossa staining (Example 1); type: in vivo, rat; details: 14 days; for Mineral deposits in the aorta (von Kossa staining): single agents
Method: as §1, §2
Following sacrifice, the abdominal aortas were dissected and divided in two parts. One part was fixated in 10% buffered formalin and subsequently sectioned and stained for mineralization by the von Kossa method. The other was dimineralized in 10% formic acid, and the arterial tissue calcium and phosphorous content measured in the supernatant according to the method described by Price et al Arterioscler Thromb Vasc Biol 20:317-27, 2000.

5/6 Nx rats [4] = assay: Ca and P content of thoracic aorta in 5/6 Nx rats given paricalcitol and/or Compound B (Example 3); type: in vivo, rat; details: 14 days
Source text: Wistar rats (200-250g), fed a 0.6% Ca and 1.2% P diet, were 5/6 nephrectomized (5/6 Nx) or sham-operated (sham).

5/6 Nx rats [5] = assay: Serum PTH, ionized Ca, P and creatinine in 5/6 Nx rats given paricalcitol and/or Compound B (Example 3); details: 14 days
5/6 Nx rats [6] = assay: Soft tissue mineralization by Von Kossa staining in 5/6 Nx rats (Example 4); type: in vivo, rat; details: 5/6 Nx rats, 14 days
Source text: Wistar rats (200-250g), fed a 0.6% Ca and 1.2% P diet, were 5/6 nephrectomized (5/6 Nx).

[7] = Group C: normal diet from day 14 + Compound A 3 mg/kg daily p.o. while still receiving calcitriol, vs group D, day 28
[8] = Compound A 1.5 mg/kg per day sc, calcitriol 80 ng/kg ip every other day, or both, mean±SE
[9] = Compound A 3 mg/kg per day sc, mean±SE
[10] = concurrent treatment with Compound A 1.5 mg/kg and calcitriol 80 ng/kg
[11] = 5/6 Nx rats, compared to vehicle treated 5/6 Nx animals (Compound B also vs sham)
[12] = thoracic aorta, 5/6Nx rats, paricalcitol 240 ng/kg every 48 hr ip, Compound B 1.5 mg/kg every 48 hr sc
[13] = 5/6 Nx rats, compared to 5/6 Nx+vehicle
[14] = serum, 5/6Nx rats, paricalcitol 240 ng/kg every 48 hr ip, Compound B 1.5 mg/kg every 48 hr sc
[15] = Group B: high phosphorus diet + calcitriol 80 ng/kg every other day i.p. 28 days, vs Group A (vehicle)
[16] = calcitriol 80 ng/kg every 48 hr ip

COc1cccc([C@@H](C)NCCCc2ccccc2Cl)c1.Cl [Compound A, N-(3-[2-chlorophenyl]-propyl)-R-α-methyl-3-methoxybenzylamine HCl]
Aortic calcium content (5/6 Nx rats [1]; [7]): lower | Aortic phosphorus content (5/6 Nx rats [1]; [7]): significant (p<0.05) reduction | Serum PTH concentration (5/6 Nx rats [2]; Compound A 1.5 mg/kg per day sc alone or with calcitriol 80 ng/kg, mean±SE): 73.5 ± 12.8 pg/mL | Calcitriol mediated increase in serum creatinine levels (5/6 Nx rats [2]; Compound A 1.5 mg/kg per day sc included with calcitriol 80 ng/kg): decreased | Serum ionized calcium levels (5/6 Nx rats [2]; [8]): 1.20 ± 0.02 mmol/L | Serum phosphorus levels (5/6 Nx rats [2]; [8]): 6.6 ± 0.3 mg/dL | Serum ionized calcium levels (5/6 Nx rats [2]; [9]): 1.22 ± 0.02 mmol/L | Serum phosphorus levels (5/6 Nx rats [2]; [9]): 6.9 ± 0.4 mg/dL | Raised phosphorus content in the aortic tissue, in words (5/6 Nx rats [3]; Compound A alone 1.5 or 3 mg/kg): did not | Development of aortic calcification (von Kossa staining) (5/6 Nx rats [3]; addition of Compound A 1.5 mg/kg to the calcitriol-treatment regimen): prevented the development of aortic calcification | Calcitriol-induced increase in aortic calcium (5/6 Nx rats [3]; [10]): significantly (P=0.002) attenuated | Calcitriol-induced increase in aortic phosphorus (5/6 Nx rats [3]; [10]): significantly (P=0.013) attenuated | Mineral deposits in the aorta (von Kossa staining) (5/6 Nx rats [3]): not observed

C[C@H](/C=C/[C@H](C)C(C)(C)O)[C@H]1CC[C@H]2/C(=C/C=C3C[C@@H](O)C[C@H](O)C3)CCC[C@]12C [Paricalcitol, paricalcitol, reference compound]
Aortic Ca content, change in words (5/6 Nx rats [4]; [11]): significantly increased | Aortic P content, change in words (5/6 Nx rats [4]; [11]): significantly increased | Aortic Ca (5/6 Nx rats [4]; [12]): 9.5 ± 2.2 mg/g | Aortic P (5/6 Nx rats [4]; [12]): 6.2 ± 2.4 mg/g | Blood ionized calcium, change in words (5/6 Nx rats [5]; [13]): no changes | Creatinine, change in words (5/6 Nx rats [5]; [13]): no changes | Serum P levels, change in words (5/6 Nx rats [5]; [13]): no changes | Serum PTH levels, change in words (5/6 Nx rats [5]; [13]): significantly (p<0.05) decreased | Creatinine (5/6 Nx rats [5]; 5/6Nx rats, paricalcitol 240 ng/kg every 48 hr ip, Compound B 1.5 mg/kg every 48 hr sc): 2.32 ± 0.43 mg/dL | P (5/6 Nx rats [5]; [14]): 14.7 ± 2.1 mg/dL | PTH (5/6 Nx rats [5]; [14]): 250 ± 61 pg/mL | Mineralization in kidney (Von Kossa staining) (5/6 Nx rats [6]; paricalcitol 240 ng/kg every 48 hr ip): increased mineralization

C=C1/C(=C\C=C2/CCC[C@]3(C)[C@@H]([C@H](C)CCCC(C)(C)O)CC[C@@H]23)C[C@@H](O)C[C@@H]1O [calcitriol, reference compound]
Aortic calcium content (5/6 Nx rats [1]; [15]): significant (p<0.05) increases | Aortic phosphorus content (5/6 Nx rats [1]; [15]): significant (p<0.05) increases | Serum ionized calcium levels (5/6 Nx rats [2]; [8]): 1.28 ± 0.02 mmol/L | Serum phosphorus levels (5/6 Nx rats [2]; [8]): 10.2 ± 0.9 mg/dL | Serum creatinine levels (5/6 Nx rats [2]; calcitriol 80 ng/kg ip every other day, alone or with Compound A 1.5 mg/kg per day sc, mean±SE): 1.05 ± 0.07 mg/dL | Phosphorus content in the aortic tissue (5/6 Nx rats [3]; calcitriol 80 ng/kg ip every other day): 2.1±1 mg/g tissue | Aortic calcium content (5/6 Nx rats [3]; calcitriol 80 ng/kg ip every other day, mean±SE): 4.2±1.1 mg/g tissue | Mineral deposits in the aorta (von Kossa staining) (5/6 Nx rats [3]): marked von Kossa staining | Mineralization in heart (Von Kossa staining) (5/6 Nx rats [6]; [16]): increased mineralization | Mineralization in kidney (Von Kossa staining) (5/6 Nx rats [6]; [16]): increased mineralization | Mineralization in lung (Von Kossa staining) (5/6 Nx rats [6]; [16]): increased mineralization
